Measured values from article PMC10470053, “Diverse p120RasGAP interactions with doubly phosphorylated partners EphB4, p190RhoGAP, and Dok1” (The Journal of Biological Chemistry, 2023).
Values joined by “and” are separate entries in the source; they are usually repeats but may differ in a detail not shown here. Equal values may be shown once. Read-outs that look alike come from different tables or passages of the source. One block for each compound: values may come before it. Square brackets hold non-standard residues; d marks the D form. Peptide text beside a SMILES is read from it. pY = N[C@@H](Cc1ccc(OP(=O)(O)O)cc1)C(=O)O

Key:
[1] = target: T1, RasGAP^232(mut) (R398E/K400E, C-SH2 mutant) (Homo sapiens, UniProt P20936, C236S/C261S/C372S/C402S/K400E/R398E); assay: Isothermal titration calorimetry, C-SH2 mutant RasGAP^232(mut); assay type: binding
T1 construct: (residues 174–444, termed RasGAP^232); hexahistidine (TEV-cleavable) (N, cleaved yes); made in house; host or cells: E. coli Rosetta (DE3)
T1 sequence (P20936 174-444 C236S/C261S/C372S/R398E/K400E/C402S): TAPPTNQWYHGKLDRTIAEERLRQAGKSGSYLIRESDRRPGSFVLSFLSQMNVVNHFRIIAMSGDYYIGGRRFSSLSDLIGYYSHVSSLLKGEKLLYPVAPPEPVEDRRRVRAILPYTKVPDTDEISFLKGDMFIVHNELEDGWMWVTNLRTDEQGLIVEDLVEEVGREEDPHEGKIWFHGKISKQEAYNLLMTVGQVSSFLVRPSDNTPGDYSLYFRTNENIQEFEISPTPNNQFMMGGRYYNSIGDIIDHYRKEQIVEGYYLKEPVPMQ
Experimental: One possibility for the difference in binding affinity of EphB4 compared to the other dually phosphorylated peptides is that only a single SH2 domain engages EphB4 at any time. This is supported by the observation that the Kd of binding, 2 μM, is similar to other reported individual SH2 phosphotyrosine interactions (for examples see ([60])) and the evidence of only one inflection point in the doubly phosphorylated EphB4–binding isotherm (Figs. 2B and S3). To assess this hypothesis, we generated two RasGAP^232 mutants that disrupt the phosphotyrosine-binding sites of either the N- or C-SH2 domains and conducted further ITC experiments. […] For the ‘FLVR-unique” C-terminal SH2, we introduced a double mutation R398E/K400E, to abrogate phosphotyrosine binding guided by our previous work ([52]), termed RasGAP^232(mut) (Fig. 2D). We additionally generated a double mutant of both SH2 domains, RasGAP^2(mut)32(mut), and purified each of these proteins (Fig. S2, B–D). […] We then assessed phosphopeptide binding of the single mutant SH2 domains. […] This is similar to the Kd of 2 ± 0.7 μM observed for titration of this peptide into WT RasGAP^232.
To attempt to parse the specificity of RasGAP for the more N- or C-terminal EphB juxtamembrane phosphotyrosines pY590 and pY596, we assessed the affinity of RasGAP^232(mut) for shorter synthesized EphB4 peptides corresponding to either of the two phosphotyrosines (Fig. 1C). […] Alternatively, the C-terminal SH2 may contribute to a second weaker interaction in a tandem interaction. […] This low-affinity interaction represents a primarily single N-SH2-dominant interaction.
Purified RasGAP^232 protein and solubilized peptides were dialyzed overnight against buffer containing 20 mM Tris pH 8, 250 mM NaCl in Slide-A-Lyzer 3 ml 10 kDa molecular weight cut off cassettes (Spectra-Por) and Micro Float-A-Lyzer 0.1 to 0.2 ml, 0.1 to […] molecular weight cut off devices (Spectra-Por), respectively. Protein and peptide concentrations were determined by A280 measured on a Nanodrop Lite (Thermo Fisher Scientific) instrument using extinction coefficients of 45,840 M^−1 cm^−1 for RasGAP^232 (and mutants), 917 M^−1 cm^−1 for the doubly phosphorylated EphB4 peptide, and 458.5 M^−1 cm^−1 for the singly phosphorylated EphB4 peptides as determined by ([74]). Dok1 peptide concentration was confirmed using Amino Acid Analysis performed at UC Davis Molecular Structure Facility. Samples were centrifuged for 10 min at 4 °C and degassed for 7 min using a Degassing Station (TA Instruments). ITC experiments were performed on a Nano ITC (TA Instruments) by loading protein into the 190 μl sample cell and titrating 20 times with 2.5 μl peptide in the titration syringe. Concentrations for sample cell and syringe for each trial are included in Table S1. The data were analyzed in NanoAnalyze software (TA Instrument) using blank (constant) and independent models (https://www.tainstruments.com/itcrun-dscrun-nanoanalyze-software/).

[2] = Reconstitution of lyophilized peptides in water; assay type: physicochemical; details: lyophilized peptide reconstituted in water; spiked with 20 mM Tris pH 8 or 10 mM NaOH to increase solubility
Text: Synthetic peptides were purchased from GenScript and contain N-terminal acetylation and C-terminal amidation for stability. The doubly phosphorylated EphB4 peptide (UniProt ID P54760) used in ITC and SAXS experiments contains residues 586 to 602 (GTKV[pTyr]IDPFT[pTyr]EDPNEA). The singly phosphorylated EphB4 peptides pY590 and pY596 used in ITC experiments contain the residues 586 to 595 (GTKV[pTyr]IDPFT) and residues 592 to 602 (DPFT[pTyr]EDPNE), respectively. The p190RhoGAP peptide (UniProt ID Q9NRY4) used in SAXS experiments contains the residues 1083 to 1111 (SD[pTyr]AEPMDAVVKPRNEEENI[pTyr]SVPH). The Dok1 peptide (UniProt ID Q99704) used in ITC and SAXS experiments contains the residues 291 to 322 (SPPAL[pTyr]AEPLDSLRIAPCPSQDSL[pTyr]SDPLDST). Lyophilized peptides were reconstituted in water, and less soluble peptides (pYpYEphB4 and pY590) were spiked with 20 mM Tris pH 8 or 10 mM NaOH to increase solubility. Concentrations of stock peptides are as follows: pYpY190 stock concentration is 10 mM; pYpYEphB4 stock concentration is 2.5 mM; Dok1 stock concentration is 5.5 mM; pY596 stock concentration is 10 mM; and pY590 stock concentration is 8 mM.

[3] = target: p190RhoGAP-A doubly phosphorylated peptide (Homo sapiens) (UniProt Q9NRY4); assay: ITC; details: cited from earlier work
Sequence of p190RhoGAP-A doubly phosphorylated peptide (Homo sapiens) (Q9NRY4 1083-1111): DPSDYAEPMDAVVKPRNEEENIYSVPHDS

[4] = ITC, average of trials (Table S1)

Sequence of p120RasGAP SH2-SH3-SH2 (P20936 174-444): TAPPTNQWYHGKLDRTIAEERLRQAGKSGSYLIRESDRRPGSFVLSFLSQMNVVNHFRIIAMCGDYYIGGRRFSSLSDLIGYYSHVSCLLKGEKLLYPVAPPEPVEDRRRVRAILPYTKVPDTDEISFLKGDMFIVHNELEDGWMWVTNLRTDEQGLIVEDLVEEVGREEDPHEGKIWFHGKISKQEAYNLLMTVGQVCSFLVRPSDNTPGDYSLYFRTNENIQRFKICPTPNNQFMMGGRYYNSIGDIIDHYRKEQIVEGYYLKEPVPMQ

Kd ([1]; ITC, 20 mM Tris pH 8, 250 mM NaCl, independent model, mean ± SD of trials (n = 4 pYpY EphB4, n = 3 pY590, pY596), read-out: Kd): 1000 ± 300 nM | solubility on reconstitution, in words [2]: less soluble
Compound: CC[C@H](C)[C@H](NC(=O)[C@H](Cc1ccc(OP(=O)(O)O)cc1)NC(=O)[C@@H](NC(=O)[C@H](CCCCN)NC(=O)[C@@H](NC(=O)CNC(C)=O)[C@@H](C)O)C(C)C)C(=O)N[C@@H](CC(=O)O)C(=O)N1CCC[C@H]1C(=O)N[C@@H](Cc1ccccc1)C(=O)N[C@H](C(=O)N[C@@H](Cc1ccc(OP(=O)(O)O)cc1)C(=O)N[C@@H](CCC(=O)O)C(=O)N[C@@H](CC(=O)O)C(=O)N1CCC[C@H]1C(=O)N[C@@H](CC(N)=O)C(=O)N[C@@H](CCC(=O)O)C(=O)N[C@@H](C)C(N)=O)[C@@H](C)O [pYpY EphB4] (Ac-GTKV[pY]IDPFT[pY]EDPNEA-NH2)

Compound: CC[C@H](C)[C@H](NC(=O)[C@H](Cc1ccc(OP(=O)(O)O)cc1)NC(=O)[C@@H](NC(=O)[C@H](CCCCN)NC(=O)[C@@H](NC(=O)CNC(C)=O)[C@@H](C)O)C(C)C)C(=O)N[C@@H](CC(=O)O)C(=O)N1CCC[C@H]1C(=O)N[C@@H](Cc1ccccc1)C(=O)N[C@H](C(N)=O)[C@@H](C)O [pY590 EphB4] (Ac-GTKV[pY]IDPFT-NH2)
weaker binding than the doubly phosphorylated EphB4 peptide ([1]; ITC Kd, singly versus doubly phosphorylated EphB4 peptide): about 10 fold | n ([1]; ITC stoichiometry, mean ± SD of trials): 0.8 ± 0.1 | -T∆S [1, 4]: -2.87 kcal/mol | Ka [1, 4]: 0.07 µM⁻¹ | ∆G [1, 4]: -6.69 kcal/mol | ΔS ([1]; ITC, mean ± SD of trials): 40 J/mol∗K and 40 ± 18 J/mol∗K | -T∆S ([1]; trial 2, ITC): -2.82 kcal/mol | Ka ([1]; trial 2, ITC): 0.07 µM⁻¹ | ∆G ([1]; trial 2, ITC): -6.6 kcal/mol | ∆H ([1]; trial 2, ITC): -3.78 kcal/mol | ∆S ([1]; trial 2, ITC): 40.0 J/mol*K | -T∆S ([1]; trial 3, ITC): -4.16 kcal/mol | ∆G ([1]; trial 3, ITC): -6.84 kcal/mol | ∆H ([1]; trial 3, ITC): -2.68 kcal/mol | ∆S ([1]; trial 3, ITC): 58.3 J/mol*K | Kd ([1]; trial 3, ITC, read-out: Ka): 100 nM | solubility on reconstitution, in words [2]: less soluble

Compound: p120RasGAP SH2-SH3-SH2 (from UniProt P20936)
Kd [3]: 10 nM
